Results reported in patent US10526316B2, “Quinoxaline and pyridopyrazine derivatives as PI3Kβ inhibitors” (Janssen Pharmaceutica NV, priority 2015, dated 2020).
Where two headings read alike, the source gives them in different places.

Key:
kinase enzymes [1] = molecular target: T1, kinase enzymes (Homo sapiens, UniProt P42336); test: Enzyme binding assay (KINOMEscan, DiscoveRx), further kinases of Table A; conditions: PIK3Cα_h
T1 construct: purchased DiscoveRx Corporation, San Diego (contract service, KINOMEscan)
T1 sequence (P42336 whole entry): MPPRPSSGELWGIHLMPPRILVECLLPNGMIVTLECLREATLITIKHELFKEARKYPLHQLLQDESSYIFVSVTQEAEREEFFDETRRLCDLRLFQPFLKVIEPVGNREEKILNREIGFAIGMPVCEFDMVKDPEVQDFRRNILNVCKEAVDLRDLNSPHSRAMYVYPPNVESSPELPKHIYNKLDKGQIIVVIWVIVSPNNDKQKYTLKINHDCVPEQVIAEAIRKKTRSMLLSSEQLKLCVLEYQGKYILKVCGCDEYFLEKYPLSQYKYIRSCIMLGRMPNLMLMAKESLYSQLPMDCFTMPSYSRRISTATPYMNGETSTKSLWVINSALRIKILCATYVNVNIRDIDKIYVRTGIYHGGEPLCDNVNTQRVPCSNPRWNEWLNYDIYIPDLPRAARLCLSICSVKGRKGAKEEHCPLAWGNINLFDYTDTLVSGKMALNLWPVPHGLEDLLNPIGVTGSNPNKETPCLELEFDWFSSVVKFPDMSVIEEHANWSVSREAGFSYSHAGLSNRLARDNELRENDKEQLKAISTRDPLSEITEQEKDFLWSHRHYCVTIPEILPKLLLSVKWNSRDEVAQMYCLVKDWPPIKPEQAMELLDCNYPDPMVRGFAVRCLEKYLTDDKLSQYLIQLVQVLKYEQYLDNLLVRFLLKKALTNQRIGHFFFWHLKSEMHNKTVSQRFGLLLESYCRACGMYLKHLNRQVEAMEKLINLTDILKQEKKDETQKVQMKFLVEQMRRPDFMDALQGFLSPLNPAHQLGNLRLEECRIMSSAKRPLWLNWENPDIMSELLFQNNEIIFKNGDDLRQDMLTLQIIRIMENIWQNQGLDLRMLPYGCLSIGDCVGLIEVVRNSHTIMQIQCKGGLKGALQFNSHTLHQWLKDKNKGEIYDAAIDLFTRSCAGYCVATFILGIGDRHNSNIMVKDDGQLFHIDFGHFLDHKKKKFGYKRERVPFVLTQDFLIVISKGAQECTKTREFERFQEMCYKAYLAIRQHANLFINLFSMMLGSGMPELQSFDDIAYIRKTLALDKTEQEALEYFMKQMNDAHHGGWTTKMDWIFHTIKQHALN
Experimental: (§1) Enzyme Binding Assays (KINOMEscan®)
(§2) Kinase enzyme binding affinities of compounds disclosed herein were determined using the KINOMEscan technology performed by DiscoveRx Corporation, San Diego, Calif., USA (www.kinomescan.com).

kinase enzymes [2] = molecular target: T2, kinase enzymes (Homo sapiens, UniProt P42345); test: as above; conditions: MTOR_h
T2 construct: purchased DiscoveRx Corporation, San Diego (contract service, KINOMEscan)
Experimental: as §1, §2

kinase enzymes [3] = molecular target: T3, kinase enzymes (Homo sapiens, UniProt P48736); test: as above; conditions: PIK3Cγ_h
T3 construct: purchased DiscoveRx Corporation, San Diego (contract service, KINOMEscan)
T3 sequence (P48736 whole entry): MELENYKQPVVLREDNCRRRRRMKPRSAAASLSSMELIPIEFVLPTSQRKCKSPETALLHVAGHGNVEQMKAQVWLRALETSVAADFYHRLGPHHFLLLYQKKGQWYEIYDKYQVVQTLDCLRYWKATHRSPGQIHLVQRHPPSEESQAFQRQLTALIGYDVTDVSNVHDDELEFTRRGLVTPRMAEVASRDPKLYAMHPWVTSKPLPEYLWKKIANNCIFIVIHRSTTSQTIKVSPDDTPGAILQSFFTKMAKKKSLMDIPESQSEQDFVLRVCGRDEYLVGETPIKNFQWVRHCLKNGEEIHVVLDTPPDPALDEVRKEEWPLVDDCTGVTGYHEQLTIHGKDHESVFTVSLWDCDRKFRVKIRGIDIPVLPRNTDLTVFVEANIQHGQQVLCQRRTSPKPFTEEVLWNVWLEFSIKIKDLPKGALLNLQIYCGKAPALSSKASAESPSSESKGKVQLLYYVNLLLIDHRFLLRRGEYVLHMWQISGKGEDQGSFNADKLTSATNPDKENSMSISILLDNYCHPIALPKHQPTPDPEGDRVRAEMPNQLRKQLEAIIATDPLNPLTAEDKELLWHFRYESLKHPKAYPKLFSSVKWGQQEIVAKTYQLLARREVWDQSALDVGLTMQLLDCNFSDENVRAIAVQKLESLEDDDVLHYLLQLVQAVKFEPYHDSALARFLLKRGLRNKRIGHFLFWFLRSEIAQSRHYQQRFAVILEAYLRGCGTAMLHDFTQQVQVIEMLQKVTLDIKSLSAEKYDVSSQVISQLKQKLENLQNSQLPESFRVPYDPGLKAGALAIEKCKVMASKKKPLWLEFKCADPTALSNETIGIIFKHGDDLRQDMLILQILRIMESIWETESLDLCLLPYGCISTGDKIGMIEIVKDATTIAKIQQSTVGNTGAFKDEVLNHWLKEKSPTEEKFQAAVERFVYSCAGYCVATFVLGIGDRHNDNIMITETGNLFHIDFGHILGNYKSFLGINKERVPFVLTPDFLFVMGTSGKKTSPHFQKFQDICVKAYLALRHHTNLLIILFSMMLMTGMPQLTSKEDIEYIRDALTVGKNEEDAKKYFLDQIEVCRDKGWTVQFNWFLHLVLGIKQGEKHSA
Experimental: as §1, §2

[4] = system: Akt phosphorylated at Thr308 in PC-3 cells; test: Cellular assay: phosphorylation of Akt at Thr308 in PC-3 cells (MSD ELISA); format: cell-based; conditions: PC-3 cells, 60 min compound incubation, MSD ELISA, read-out: IC50 pAkt_Thr308
Experimental: (§3) Cellular activity of PI3KP inhibitors was determined by quantifying the phosphorylation of Akt in PC-3 cells. Akt phosphorylated at Ser473 and Thr308 were measured using an enzyme-linked immunosorbent assay (ELISA; Meso Scale Discovery (MSD), Gaithersburg. Md.) and specific primary antibodies from MSD.
(§4) On day 2, compound or DMSO (0.3%) was added and cells were further incubated for 60 min at 37° C. 5% CO2 in a total volume of 100 μl of medium.
(§5) The phosphoprotein assay was executed according to vendor instructions in the Phospho-Akt (Ser473) Assay Whole Cell Lysate Kit (MSD # K15100D-3) and the Phospho-Akt (Thr308) Assay Whole Cell Lysate Kit (MSD # K151DYD-3) using the lysis, blocking and wash buffer provided.
(§6) Briefly, at the end of the cell treatment period, media were removed by aspiration and adherent cells were lysed in 50 μl ice-cold lysis buffer. MSD plates are supplied pre-coated with capture antibodies for Phospho-Akt (Ser473 and Thr308). After blocking, lysates from tissue culture plates were added and plates were washed. Then, a solution containing the detection antibody (anti-total Akt conjugated with an electrochemiluminescent compound-MSD Sulfo-tag label) was added. The signals were detected using an MSD SECTOR Imager 6000 and are proportional to the phospho-Akt titres.
(§7) Data were processed. […] From these concentration-response curves, the IC50 values were calculated. Five concentrations were used for curve fitting.

PI3Kδ = molecular target: T4, PI3Kδ (Homo sapiens, UniProt O00329); test: Enzyme binding assay (KINOMEscan, DiscoveRx); conditions: PIK3Cδ_h
T4 construct: purchased DiscoveRx Corporation, San Diego (contract service, KINOMEscan)
T4 sequence (O00329 1-1044): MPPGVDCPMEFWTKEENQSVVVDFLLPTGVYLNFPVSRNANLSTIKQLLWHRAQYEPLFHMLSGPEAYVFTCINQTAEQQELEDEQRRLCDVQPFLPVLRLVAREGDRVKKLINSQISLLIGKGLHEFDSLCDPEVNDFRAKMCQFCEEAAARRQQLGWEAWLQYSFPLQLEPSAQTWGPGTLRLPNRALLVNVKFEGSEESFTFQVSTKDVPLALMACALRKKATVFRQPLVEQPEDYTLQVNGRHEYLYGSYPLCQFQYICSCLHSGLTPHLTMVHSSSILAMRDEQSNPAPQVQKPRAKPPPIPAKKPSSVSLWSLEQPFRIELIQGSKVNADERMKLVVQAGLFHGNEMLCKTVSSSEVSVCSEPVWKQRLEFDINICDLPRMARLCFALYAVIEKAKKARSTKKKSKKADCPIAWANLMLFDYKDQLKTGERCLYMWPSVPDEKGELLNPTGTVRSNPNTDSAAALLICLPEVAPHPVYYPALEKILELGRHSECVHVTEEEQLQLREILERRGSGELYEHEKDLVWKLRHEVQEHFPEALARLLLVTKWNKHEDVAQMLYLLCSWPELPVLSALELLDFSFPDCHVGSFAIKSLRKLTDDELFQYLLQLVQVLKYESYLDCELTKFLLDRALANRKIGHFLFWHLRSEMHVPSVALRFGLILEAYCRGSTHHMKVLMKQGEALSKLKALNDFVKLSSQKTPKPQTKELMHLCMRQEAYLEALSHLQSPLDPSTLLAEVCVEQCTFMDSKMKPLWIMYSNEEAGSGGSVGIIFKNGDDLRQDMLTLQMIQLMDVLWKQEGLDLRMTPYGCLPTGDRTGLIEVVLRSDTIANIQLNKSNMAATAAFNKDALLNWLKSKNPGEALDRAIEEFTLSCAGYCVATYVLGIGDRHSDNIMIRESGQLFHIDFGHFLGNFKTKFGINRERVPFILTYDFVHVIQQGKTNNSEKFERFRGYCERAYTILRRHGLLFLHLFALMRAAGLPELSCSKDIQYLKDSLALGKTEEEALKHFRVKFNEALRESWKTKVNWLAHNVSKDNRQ
Experimental: as §1, §2

[5] = system: Akt phosphorylated at Ser473 in PC-3 cells; test: Cellular assay: phosphorylation of Akt at Ser473 in PC-3 cells (MSD ELISA); format: cell-based; conditions: PC-3 cells, 60 min compound incubation, MSD ELISA, read-out: IC50 pAkt_S473
Experimental: as §3, §4, §5, §6, §7

PI3Kβ = molecular target: T5, PI3Kβ (Homo sapiens, UniProt P42338); test: Enzyme binding assay (KINOMEscan, DiscoveRx); conditions: PIK3Cβ_h, read-out: Kd PIK3Cβ_h
T5 construct: purchased DiscoveRx Corporation, San Diego (contract service, KINOMEscan)
T5 sequence (P42338 whole entry): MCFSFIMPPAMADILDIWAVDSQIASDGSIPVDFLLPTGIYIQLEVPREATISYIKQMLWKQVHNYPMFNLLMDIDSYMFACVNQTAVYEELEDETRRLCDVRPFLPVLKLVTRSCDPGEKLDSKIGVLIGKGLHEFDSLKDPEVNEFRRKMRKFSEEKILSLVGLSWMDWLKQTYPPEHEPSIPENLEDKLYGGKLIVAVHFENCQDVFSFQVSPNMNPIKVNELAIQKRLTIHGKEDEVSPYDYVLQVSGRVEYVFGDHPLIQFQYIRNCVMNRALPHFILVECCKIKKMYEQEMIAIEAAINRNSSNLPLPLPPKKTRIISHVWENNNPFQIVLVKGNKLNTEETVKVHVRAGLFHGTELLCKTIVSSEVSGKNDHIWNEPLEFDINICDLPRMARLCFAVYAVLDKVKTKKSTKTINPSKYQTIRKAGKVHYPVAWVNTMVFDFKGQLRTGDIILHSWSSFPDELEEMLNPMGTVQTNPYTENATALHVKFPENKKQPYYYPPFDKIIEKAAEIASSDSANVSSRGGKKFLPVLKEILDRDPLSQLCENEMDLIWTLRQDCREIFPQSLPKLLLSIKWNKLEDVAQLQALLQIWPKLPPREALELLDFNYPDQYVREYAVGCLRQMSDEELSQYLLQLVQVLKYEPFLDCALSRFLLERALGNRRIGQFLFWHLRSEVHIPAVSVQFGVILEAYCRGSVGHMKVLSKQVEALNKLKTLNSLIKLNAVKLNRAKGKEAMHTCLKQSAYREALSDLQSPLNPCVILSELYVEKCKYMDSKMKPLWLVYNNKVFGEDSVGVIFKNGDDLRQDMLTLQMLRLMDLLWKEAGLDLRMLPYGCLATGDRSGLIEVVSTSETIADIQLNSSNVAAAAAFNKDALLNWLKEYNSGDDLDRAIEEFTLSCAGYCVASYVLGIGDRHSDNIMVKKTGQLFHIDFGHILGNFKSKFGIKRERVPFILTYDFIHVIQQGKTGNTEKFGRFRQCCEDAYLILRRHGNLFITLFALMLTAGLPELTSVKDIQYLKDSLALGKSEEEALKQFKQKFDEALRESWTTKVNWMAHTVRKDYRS
Experimental: as §1
Kinase enzyme binding affinities of compounds disclosed herein were determined using the KINOMEscan technology performed by DiscoveRx Corporation, San Diego, Calif., USA (www.kinomescan.com). Table A reports the obtained Kd values (nM), with the Kd being the inhibitor binding constant: […]

Kd (kinase enzymes [1]) | Kd (kinase enzymes [2]) | Kd (kinase enzymes [3]) | IC50 ([4]; Homo sapiens, PC-3, 1 h) | Kd (PI3Kδ) | IC50 ([5]; Homo sapiens, PC-3, 1 h) | Kd (PI3Kβ) | IC50 [4] | IC50 [5] | Compound
2.19 µM | > 30.2 µM | 2.4 µM | 0.019 µM | 0.2 µM | 0.038 µM | 0.003 µM | – | – | CC(Nc1cc(F)c(F)c(F)c1)c1cc(C(=O)N2CCCN(C(C)C)CC2)cc2ncc(N3CCOCC3)nc12 (single isomer, unassigned) [Compound 388b]
4.37 µM | > 30.2 µM | > 30.2 µM | > 0.513 µM | 1.02 µM | > 0.513 µM | 0.059 µM | – | – | CN(Cc1cc(F)cc(F)c1)c1cc(C(=O)N2CCNC(C(F)(F)F)C2)cc2ncc(N3CCOCC3)nc12 (stereo not drawn) [Compound 319b]
15.5 µM | > 10 µM | > 30.2 µM | > 0.513 µM | 10 µM | > 0.513 µM | 1.15 µM | – | – | CC(C)NCCNC(=O)c1cc(C(C)Nc2ccc(Cl)c(F)c2)c2nc(N3CCOCC3)cnc2c1 (single isomer, unassigned) [Compound 312a]
0.372 µM | > 30.2 µM | 5.49 µM | – | 0.234 µM | – | 0.004 µM | 0.011 µM | 0.026 µM | CC(Nc1cc(F)cc(F)c1)c1cc(C(=O)N2CCNC(C(F)(F)F)C2)cc2ncc(N3CCOCC3)nc12 (single isomer, unassigned) [Compound 237c]
9.77 µM | > 30.2 µM | > 30.2 µM | 0.022 µM | 0.813 µM | ~0.029 µM | 0.002 µM | – | – | CNCCN(C)C(=O)c1cc(C(C)Oc2cc(F)c(F)c(F)c2)c2nc(N3CCOCC3)cnc2c1 (stereo not drawn) [Compound 379a]
6.17 µM | > 30.2 µM | 7.41 µM | – | 3.47 µM | – | 0.151 µM | > 0.513 µM | > 0.513 µM | CC(Nc1ccc(F)c(F)c1)c1cc(C(=O)NCCN(C)C)cc2ncc(N3CCOCC3)nc12 (single isomer, unassigned) [Compound 281b]

Second part, the compound before the results:

Compound | Kd (kinase enzymes [1]) | Kd (kinase enzymes [2]) | Kd (kinase enzymes [3]) | IC50 ([4]; Homo sapiens, PC-3, 1 h) | Kd (PI3Kδ) | IC50 ([5]; Homo sapiens, PC-3, 1 h) | Kd (PI3Kβ) | IC50 [4] | IC50 [5]
CC(Nc1cc(F)cc(F)c1)c1cc(C2=NC(C)(C)CO2)cc2ncc(N3CCOCC3)nc12 (single isomer, unassigned) [Compound 187] | > 30.2 µM | > 30.2 µM | > 30.2 µM | > 0.513 µM | > 30.2 µM | > 0.513 µM | 1.05 µM | – | –
CC(Nc1cc(F)cc(F)c1)c1cc(C(=O)NS(=O)(=O)C2CC2)cc2ncc(N3CCOCC3)nc12 (stereo not drawn) [Compound 218] | 0.537 µM | 3.31 µM | 3.09 µM | > 0.513 µM | 1.17 µM | > 0.513 µM | 0.005 µM | – | –
CC(Oc1cc(F)cc(F)c1)c1cc(C(=O)N(C)C)cc2ncc(N3CCOCC3)nc12 (single isomer, unassigned) [Compound 5] | 1.59 µM | 25.1 µM | 7.98 µM | – | 0.225 µM | – | 0.002 µM | 0.099 µM | 0.1 µM
CN(C)C(=O)c1cc(N2CCC[C@@H]2c2cc(F)cc(F)c2)c2nc(C3=CCOCC3)cnc2c1 [Compound 398] | 10.7 µM | > 30.2 µM | > 30.2 µM | > 0.513 µM | 5.75 µM | > 0.513 µM | 0.257 µM | – | –
COC(=O)c1cc(C2CCCN2c2cc(F)cc(F)c2)c2nc(N3CCOCC3)cnc2c1 (single isomer, unassigned) [Compound 252] | > 30.2 µM | > 30.2 µM | > 30.2 µM | – | > 30.2 µM | – | > 30.2 µM | > 0.513 µM | > 0.513 µM
CC(Nc1cc(F)c(F)c(F)c1)c1cc(C(=O)NCCO)cc2ncc(N3CCOCC3)nc12 (single isomer, unassigned) [Compound 214] | > 30.2 µM | > 30.2 µM | 4.57 µM | – | > 30.2 µM | – | 1.23 µM | > 0.513 µM | > 0.513 µM
CC(Nc1cc(F)cc(F)c1)c1cc(C(=O)NS(=O)(=O)C2CC2)cc2ncc(N3CCOCC3)nc12 (single isomer, unassigned) [Compound 220] | 25.7 µM | 6.46 µM | 25.7 µM | – | > 30.2 µM | – | 2.75 µM | > 0.513 µM | > 0.513 µM
CC(Nc1cc(F)cc(F)c1)c1cc(CN2CCS(=O)(=O)CC2)cc2ncc(N3CCOCC3)nc12 (single isomer, unassigned) [Compound 156] | 0.398 µM | > 30.2 µM | > 30.2 µM | – | 0.363 µM | – | 0.002 µM | 0.051 µM | 0.042 µM
CC(Nc1cc(F)cc(F)c1)c1cc(C(=O)O)cc2ncc(N3CCOCC3)nc12 (stereo not drawn) [Compound 236] | 0.112 µM | 1.32 µM | 0.813 µM | > 0.513 µM | 0.158 µM | > 0.513 µM | 0.002 µM | – | –
CC(Oc1cc(F)cc(F)c1)c1cc(C(=O)N(C)C)cc2ncc(N3CCOCC3)nc12 (single isomer, unassigned) [Compound 6] | 26 µM | > 30.2 µM | > 30.2 µM | – | 16.9 µM | – | 1.89 µM | > 0.513 µM | > 0.513 µM
Cc1c(CNc2cc(C(=O)NCCO)cc3ncc(N4CCOCC4)nc23)cccc1C(F)(F)F [Compound 231] | 17 µM | > 10 µM | > 30.2 µM | 0.398 µM | > 3.31 µM | ~0.457 µM | 0.052 µM | – | –
CC(Nc1cc(F)c(F)c(F)c1)c1cc(C(=O)N(C)C2CCNC2)cc2ncc(N3CCOCC3)nc12 (stereo not drawn) [Compound 296] | 2.95 µM | > 30.2 µM | 6.46 µM | 0.014 µM | 0.166 µM | 0.042 µM | 0.001 µM | – | –
CC(Oc1cccc(F)c1F)c1cc(C(=O)N(C)C)cc2ncc(N3CCOCC3)nc12 (single isomer, unassigned) [Compound 74] | 8.51 µM | 23.4 µM | > 30.2 µM | – | 5.62 µM | – | 0.603 µM | > 0.513 µM | > 0.513 µM
CC1CN(c2cnc3cc(C(=O)N(C)C)cc(N4CCCC4c4cc(F)cc(F)c4)c3n2)CCO1 (stereo not drawn) [Compound 396] | 7.76 µM | > 30.2 µM | 20.9 µM | > 0.513 µM | 2.04 µM | > 0.513 µM | 0.12 µM | – | –
COC(=O)[C@@H]1CCCN1C(=O)c1cc(C(C)Nc2cc(F)cc(F)c2)c2nc(N3CCOCC3)cnc2c1 (stereo partly drawn) [Compound 273] | 6.31 µM | > 30.2 µM | > 10 µM | ~0.257 µM | 2.75 µM | 0.447 µM | 0.008 µM | – | –
